What was measured:
[1] = tested on: BiFC-tau Venus HEK293 cells (tau aggregation, hTau441); assay: BiFC-tau Venus HEK293 cell assay monitoring tau aggregation under thapsigargin; format: cell-based, human; settings: for activity at 10 µM / IC50: Homo sapiens; for activity at 10 µM: HEK293-BiFC-tau-Venus cells co-treated with 10 μM compound and 80 nM thapsigargin for 24 hours, read-out: BiFC-tau intensity (%); for IC50: HEK293, inhibition of BiFC-tau Venus fluorescence, 80 nM thapsigargin, table head prints no unit, μM, read-out: BiFC-tau intensity (IC50)
Method: Phenotype-based screening to monitor tau assembly was performed using BiFC-tau Venus HEK293 cells in a high-throughput manner. Cells were seeded in 384-well plates at a density of 2.8×10^3 cells/well in 40 μL medium for 24 hours. Cells were treated with 80 nM thapsigargin (Sigma-Aldrich) in 10 μL medium and then ˜ 3,000 pDOS library compounds (10 μM), including compounds according to the present invention, using a 0.1 μL pinning tool. For knockdown experiments, cells were transfected with 5 or 10 nM siRNA using Lipofectamine RNAiMAX and incubated for 48 hours before thapsigargin treatment. […] Plates were scanned on an INCell Analyzer 2000 (GE Healthcare) at λex/λem=490/525 nm for Venus fluorescence (for the FITC channel) and λex/λem=350/455 nm for nuclei (for the DAPI channel). Bright-field images were taken to confirm cell morphology, and images were analyzed to quantify Venus intensity per cell using developer software (GE Healthcare).
1-1. According to the method described in Examples 1-15 above, the expression of Venus-based bimolecular fluorescence complemented-tau (BiFC-tau) was confirmed using HEK293 human embryonic kidney cells, thereby phenotyping the phenotype-based screening was performed.
The N-terminal Venus (VN173) and C-terminal Venus (VC155) fragment sequences are fused with the full-length human tau (hTau441) sequence to form the BiFC-tau Venus HEK293 cell system. Soluble tau dimers can be measured by monitoring the turn-on/off signal of Venus fluorescence through co-expression of the two fused vectors, hTau441-VN173 and hTau441-VC1 55.
As a stimulator of tau aggregation, thapsigargin (TG; an ER stress inducer), a direct inhibitor of sarco/endoplasmic reticulum Ca2^+-ATPase, was used. This disrupts calcium homeostasis. Thapsigargin treatment induces tau dimerization (tau aggregation), which can be confirmed by BiFC-tau Venus fluorescence turn-on.

[2] = tested on: acute Alzheimer's mouse model; assay: Acute Alzheimer's mouse model (acquisition and probe test); format: in vivo; settings: acute Alzheimer's mouse model
Method: 7-1. Potential therapeutic effect of SB1617 in an acute Alzheimer's mouse model was identified, and the design for the experiment is schematically shown in FIG. 40
7-3. As a result of confirming the treatment efficacy through a probe test, after removing the platform, it was performed by recording how many times the mouse passed the position where the platform was […]

Row | SMILES | activity at 10 µM [1] [%] | change in Venus fluorescence intensity ([1]; various concentrations with 80 nM TG for 20 hours) | melting point [°C] | learning ability (Acquisition test), rank order [2] | IC50 [1] [µM]
1 | CN(Cc1ccccc1)c1ncnc2c1[C@@H]1OC[C@H](CN2)N1S(C)(=O)=O [Compound 107] | 94 | the activity was lost | 136 to 138 | – | –
2 | COc1cc2c(cc1OC)C(=O)C(CC1CCN(Cc3ccccc3)CC1)C2 (centres unmarked) [Donepezil, reference compound] | – | – | – | WT >Donepezil >SB-1617>Vehicle | –
3 | CN(Cc1ccccc1)c1ncnc2c1[C@@H]1OC[C@H](CN2)N1S(=O)(=O)c1ccccc1[N+](=O)[O-] [Compound 103] | 102 | – | – | – | –
4 | COc1ccc(-c2ncnc3c2[C@@H]2OC[C@H](CN3)N2S(=O)(=O)c2ccc([N+](=O)[O-])cc2)cc1 [Compound 116] | 135 | – | 250 to 252 | – | –
5 | COc1ccc(S(=O)(=O)N2[C@H]3CNc4ncnc(N(C)Cc5ccccc5)c4[C@@H]2OC3)cc1 [Compound 102] | 79 | – | 121 to 123 | – | –
6 | CN(Cc1ccc(Cl)cc1)c1ncnc2c1[C@@H]1OC[C@H](CN2C(=O)c2ccc(F)cc2)N1S(=O)(=O)c1ccc([N+](=O)[O-])cc1 [Compound 129] | 70 | – | – | – | –
7 | COc1ccc(CN(C)c2ncnc3c2[C@@H]2SC[C@H](CN3)N2S(=O)(=O)c2ccc([N+](=O)[O-])cc2)cc1 [Compound 135] | 57 | – | – | – | –
8 | CN(CCc1ccccc1)c1ncnc2c1[C@@H]1OC[C@H](CN2)N1S(=O)(=O)c1ccc([N+](=O)[O-])cc1 [Compound 113] | 71 | – | 108 to 110 | – | –
9 | CN(Cc1ccc(N=[N+]=[N-])cc1)c1ncnc2c1[C@@H]1OC[C@H](CN2)N1S(=O)(=O)c1ccc([N+](=O)[O-])cc1 [Compound 119] | 56 | – | 88 to 90 | – | 4.6
10 | C=CCOC(=O)N1[C@H]2CNc3ncnc(N(C)Cc4ccc(Cl)cc4)c3[C@@H]1OC2 [Compound 126] | 100 | – | – | – | –
11 | CN(Cc1ccc(Cl)cc1)c1ncnc2c1[C@@H]1SC[C@H](CN2)N1C(=O)Nc1ccc([N+](=O)[O-])cc1 [Compound 133] | 94 | – | – | – | –
12 | CN(C)c1ncnc2c1[C@@H]1OC[C@H](CN2)N1S(=O)(=O)c1ccc([N+](=O)[O-])cc1 [Compound 112] | 90 | – | 118 to 120 | – | –
13 | CN(Cc1ccccc1)c1ncnc2c1[C@@H]1OC[C@H](CN2)N1S(=O)(=O)c1cccc([N+](=O)[O-])c1 [Compound 104] | 115 | – | – | – | –
14 | CCN1C[C@H]2CO[C@@H](c3c(N(C)Cc4ccc(Cl)cc4)ncnc31)N2S(=O)(=O)c1ccc([N+](=O)[O-])cc1 [Compound 130] | 70 | – | – | – | –
15 | COc1ccc(S(=O)(=O)N2[C@H]3CNc4ncnc(N(C)Cc5ccc(Cl)cc5)c4[C@@H]2OC3)cc1 [Compound 121] | 51 | – | 156 to 158 | – | 6.6
16 | CN(Cc1ccc(F)cc1)c1ncnc2c1[C@@H]1OC[C@H](CN2)N1S(=O)(=O)c1ccc([N+](=O)[O-])cc1 [Compound 118] | 55 | – | 102 to 104 | – | 7.6
17 | CN(Cc1ccc(Cl)cc1)c1ncnc2c1CN(S(=O)(=O)c1ccc([N+](=O)[O-])cc1)[C@H](CO)CN2 [Compound 127] | 100 | – | – | – | –
18 | CN(Cc1ccccc1)c1ncnc2c1[C@@H]1OC[C@H](CN2)N1S(=O)(=O)c1ccc(F)cc1 [Compound 106] | 81 | – | 105 to 107 | – | –

Row | SMILES | activity at 10 µM [1] [%] | change in Venus fluorescence intensity ([1]; various concentrations with 80 nM TG for 20 hours) | melting point [°C] | learning ability (Acquisition test), rank order [2] | IC50 [1] [µM]
19 | Cc1ccc(S(=O)(=O)N2[C@H]3CNc4ncnc(N(C)Cc5ccccc5)c4[C@@H]2OC3)cc1 [Compound 101] | 65 | – | 150 to 152 | – | 9.1
20 | CN(Cc1ccc(Cl)cc1)c1ncnc2c1[C@@H]1SC[C@H](CN2)N1S(=O)(=O)c1ccc([N+](=O)[O-])cc1 [Compound 131] | 98 | – | – | – | –
21 | CN(Cc1ccccc1)c1ncnc2c1[C@@H]1OC[C@H](CN2)N1S(=O)(=O)Cc1ccccc1 [Compound 109] | 84 | – | 78 to 80 | – | –
22 | CN(Cc1ccc(Cl)cc1)c1ncnc2c1[C@H]1N(S(=O)(=O)c3ccc([N+](=O)[O-])cc3)[C@@H](CN2)CS1(=O)=O [Compound 134] | 100 | – | – | – | –
23 | CN(Cc1ccccc1)c1ncnc2c1[C@@H]1OC[C@H](CN2)N1S(=O)(=O)c1cccnc1 [Compound 110] | 130 | – | 185 to 187 | – | –
24 | CN(Cc1ccc(Cl)cc1)c1ncnc2c1[C@@H]1OC[C@H](CN2)N1S(=O)(=O)c1ccc(F)cc1 [Compound 120] | 81 | – | 150 to 152 | – | –
25 | C#Cc1ccc(S(=O)(=O)N2[C@H]3CNc4ncnc(N(C)Cc5ccc(N=[N+]=[N-])cc5)c4[C@@H]2OC3)cc1 [Compound 124] | 50 | – | 139 to 141 | – | 8.1
26 | CN(Cc1ccc(Cl)cc1)c1ncnc2c1[C@@H]1OC[C@H](CN2C(=O)C2CC2)N1S(=O)(=O)c1ccc([N+](=O)[O-])cc1 [Compound 123] | 78 | – | 124 to 126 | – | –
27 | CN(Cc1ccccc1)c1ncnc2c1[C@@H]1OC[C@H](CN2)N1S(=O)(=O)c1cccs1 [Compound 111] | 110 | – | 112 to 114 | – | –
28 | CC(C)N(Cc1ccccc1)c1ncnc2c1[C@@H]1OC[C@H](CN2)N1S(=O)(=O)c1ccc([N+](=O)[O-])cc1 [Compound 114] | 47 | – | 85 to 87 | – | 6.9
29 | CNc1ncnc2c1[C@@H]1OC[C@H](CN2)N1S(=O)(=O)c1ccc([N+](=O)[O-])cc1 [Compound 136] | 10 | – | – | – | –
30 | CN(Cc1ccccc1)c1ncnc2c1[C@@H]1OC[C@H](CN2)N1S(=O)(=O)c1ccccc1 [Compound 108] | 105 | – | 120 to 122 | – | –
31 | CN(Cc1ccc(Cl)cc1)c1ncnc2c1[C@@H]1SC[C@@H](CN2)N1C(=O)OC(C)(C)C [Compound 132] | 80 | – | – | – | –
32 | C=C(C)c1ncnc2c1[C@@H]1OC[C@H](CN2)N1S(=O)(=O)c1ccc([N+](=O)[O-])cc1 [Compound 115] | 99 | – | 200 to 202 | – | –
33 | CN(Cc1ccc(Cl)cc1)c1ncnc2c1[C@H]1OCC[C@@H](CN2)N1S(=O)(=O)c1ccc([N+](=O)[O-])cc1 [Compound 128] | 95 | – | – | – | –
34 | CC(=O)N1C[C@H]2CO[C@@H](c3c(N(C)Cc4ccc(Cl)cc4)ncnc31)N2S(=O)(=O)c1ccc([N+](=O)[O-])cc1 [Compound 122] | 81 | – | 105 to 107 | – | –
35 | CN(Cc1ccc(Cl)cc1)c1ncnc2c1[C@H]1OC[C@@H](CN2)N1S(=O)(=O)c1ccc([N+](=O)[O-])cc1 [Compound 125] | 98 | – | – | – | –
36 | CN(Cc1ccccc1)c1ncnc2c1[C@@H]1OC[C@H](CN2)N1S(=O)(=O)c1ccc([N+](=O)[O-])cc1 [Compound 105] | 46 | – | 97 to 99 | – | 5.2
